Source: patent US9072293B2, “Cyclopropenes and method for applying cyclopropenes to agricultural products or crops” (Erum Biotechnologies Inc., priority 2010, dated 2015)
Several values for one entry are separate records, joined by “and”; a condition that tells them apart may be missing. Equal entries are not always repeated.

What was measured:
[1] = Relative chemical stability of cyclopropenes measured by 1H-NMR; assay type: physicochemical
Summary of the method: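 Compounds in CDCl3 NMR tubes stored at −20° C. or room temperature and followed by 1H-NMR. Integrals of characteristic 1-alkylcyclopropene peaks (4–6.5 ppm, 1H; 0.8–0.9 ppm, 2H) compared against 1,1,3,3-tetramethylurea internal standard (2.80 ppm); stability expressed relative to chain-length-1 analogue.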

tomato [2] = assay: Experimental Example 1: Efficacy test on tomato using emulsion (reddening grade); assay type: in vivo; details: individual tomatoes n=4
Method: In situ, a 1.0 mM 1-octylcyclopropene formulation was prepared using (trans)-1-octyl-1-(methanesulfonyloxy)-2-(trimethylsilyl)cyclopropane of Preparation Example 10 in the same manner as in Example 7. This solution was diluted to 1 to 100 times prior to use, as necessary. Experimental Example 1: Efficacy test on tomato using emulsion 1.0 mM formulations of five agents such as 1-(2-phenylethyl)cyclopropene, 1-(3-phenylpropyl)cyclopropene, 1-(4-phenylbutyl)cyclopropene, 1-(5-phenylpentyl)cyclopropene and 1-hexylcyclopropene were prepared in the same manner as in Example 1, and 1.0 mM and 100 μM solutions were prepared therefrom. Then, the effects of the solutions were compared with non-treated groups and control groups in which a surfactant or a stabilizing agent (sodium dodecylbenzenesulfonate or tristyrenylphenykethoxy)12ethanol) is dissolved.
Tomatoes whose top end began to turn pink were screened, harvested and divided into 12 groups (n=4) in total, i.e., non-treated groups, control groups (surfactant) and agent groups with different concentrations such as 100 μM and 1.0 mM. Tomatoes were treated with the prepared agent formulation using a household sprayer such that the surface thereof was saturated. The tomatoes were stood at room temperature (25-30° C.) for 3 days and a reddening level thereof was evaluated based on grades of 0 to 5.
(§1) At this time, the tops of tomatoes most early turned red, while the bottoms thereof most lately turned red. For this reason, in order to accurately evaluate the difference in reddening, the coloring evaluated was based on the area of red color, rather than the color of tomatoes. […] Accordingly, the grade level is proportional to the rate at which the tomatoes ripened.

tomato [3] = assay: Experimental Example 2: Efficacy test on tomato using oil based formulation (reddening grade); assay type: in vivo; details: 1.0 mM oil-based formulation, individual tomatoes n=4
From the text: as §1
As illustrated in Example 1, in situ, in accordance with the methods of Preparation Examples 15, 16, 17, 18 and 22, five agents (1.0 mmol) such as 1-(2-phenylethyl)cyclopropene, 1-(3-phenylpropyl)cyclopropene, 1-(4-phenylbutyl)cyclopropene, 1-(5-phenylpentyl)cyclopropene and 1-hexylcyclopropene were prepared, 5.0 ml of xylene and 5.0 ml of water were added to the reaction solution, vigorously stirred for 5 minutes and stood. When the mixture was separated into an organic layer (upper layer) and an aqueous layer (lower layer), only the organic layer was collected and the aqueous layer was discarded. […] of hexane was added to the organic layer and homogeneously mixed to prepare a 1.0 mM oil-based formulation.
The tomatoes were screened in the same manner as in Experimental Example 1 and divided into 7 groups (n=4) including a non-treated group, a control group (solvent-treated group) and 5 agent groups. Tomatoes were treated with the previously prepared agent using a household sprayer such that the surface thereof was saturated. The tomatoes were stood at room temperature (25-30° C.) for 3 days and a reddening level thereof was evaluated based on grades of 0 to 5.

## C1=C(CCCc2ccccc2)C1 [(3-Phenylpropyl), 1-(3-phenylpropyl)cyclopropene]
[1]
  chemical stability (in words): much more stable
[1]; 1H-NMR, CDCl3, stored at −20° C. or room temperature, relative to chain length 1
  Stability (relative chemical stability, based on cyclopropenes having a chain length of 1): >>10
Tomato [2]; 100 μM, Day 0, room temperature (25-30° C.)
  reddening level (grade 0 to 5): 0 (an area in which the surface of tomato was colored in pink was 10% or less) (2×) and 1 (an area in which the surface of tomato was completely colored in red was 10 to 40%) and 2 (an area in which the surface of tomato was completely colored in red was 40 to 70%)
Tomato [2]; 100 μM, Day 1, room temperature (25-30° C.)
  reddening level (grade 0 to 5): 1 (an area in which the surface of tomato was completely colored in red was 10 to 40%) (3×) and 2 (an area in which the surface of tomato was completely colored in red was 40 to 70%)
Tomato [2]; 100 μM, Day 2, room temperature (25-30° C.)
  reddening level (grade 0 to 5): 1 (an area in which the surface of tomato was completely colored in red was 10 to 40%) (2×) and 2 (an area in which the surface of tomato was completely colored in red was 40 to 70%) and 3 (an area in which the surface of tomato was completely colored in red was 70% or more and the bottom area remained green)
Tomato [2]; 100 μM, Day 3, room temperature (25-30° C.)
  reddening level (grade 0 to 5): 2 (an area in which the surface of tomato was completely colored in red was 40 to 70%) (2×) and 3 (an area in which the surface of tomato was completely colored in red was 70% or more and the bottom area remained green) and 4
Tomato [2]; 1.0 mM, Day 0, room temperature (25-30° C.)
  reddening level (grade 0 to 5): 0 (an area in which the surface of tomato was colored in pink was 10% or less) (2×) and 1 (an area in which the surface of tomato was completely colored in red was 10 to 40%) and 2 (an area in which the surface of tomato was completely colored in red was 40 to 70%)
Tomato [2]; 1.0 mM, Day 1, room temperature (25-30° C.)
  reddening level (grade 0 to 5): 0 (an area in which the surface of tomato was colored in pink was 10% or less) (2×) and 1 (an area in which the surface of tomato was completely colored in red was 10 to 40%) and 2 (an area in which the surface of tomato was completely colored in red was 40 to 70%)
Tomato [2]; 1.0 mM, Day 2, room temperature (25-30° C.)
  reddening level (grade 0 to 5): 1 (an area in which the surface of tomato was completely colored in red was 10 to 40%) (2×) and 0 (an area in which the surface of tomato was colored in pink was 10% or less) and 3 (an area in which the surface of tomato was completely colored in red was 70% or more and the bottom area remained green)
Tomato [2]; 1.0 mM, Day 3, room temperature (25-30° C.)
  reddening level (grade 0 to 5): 1 (an area in which the surface of tomato was completely colored in red was 10 to 40%) (2×) and 2 (an area in which the surface of tomato was completely colored in red was 40 to 70%) and 3 (an area in which the surface of tomato was completely colored in red was 70% or more and the bottom area remained green)
Tomato [3]; Day 0, room temperature (25-30° C.)
  Tomato results: reddening level (grade 0 to 5): 0 (an area in which the surface of tomato was colored in pink was 10% or less) (2×) and 1 (an area in which the surface of tomato was completely colored in red was 10 to 40%) and 2 (an area in which the surface of tomato was completely colored in red was 40 to 70%)
Tomato [3]; Day 1, room temperature (25-30° C.)
  Tomato results: reddening level (grade 0 to 5): 0 (an area in which the surface of tomato was colored in pink was 10% or less) (2×) and 1 (an area in which the surface of tomato was completely colored in red was 10 to 40%) and 2 (an area in which the surface of tomato was completely colored in red was 40 to 70%)
Tomato [3]; Day 2, room temperature (25-30° C.)
  Tomato results: reddening level (grade 0 to 5): 0 (an area in which the surface of tomato was colored in pink was 10% or less) (2×) and 1 (an area in which the surface of tomato was completely colored in red was 10 to 40%) and 3 (an area in which the surface of tomato was completely colored in red was 70% or more and the bottom area remained green)
Tomato [3]; Day 3, room temperature (25-30° C.)
  Tomato results: reddening level (grade 0 to 5): 1 (an area in which the surface of tomato was completely colored in red was 10 to 40%) (2×) and 2 (an area in which the surface of tomato was completely colored in red was 40 to 70%) and 4
